Measurements from patent publication US12331035B2, “Bicyclic compound and use thereof” (SK BIOPHARMACEUTICALS CO., LTD., priority 2019, dated 2025).

The compounds below were run against T1, PRMT5-MEP50 enzyme complex (Homo sapiens, UniProt O14744) (assay: In vitro PRMT5 enzyme activity assay (methylation of histone H4 arginine H4R3, ELISA absorbance at 450 nm)). Settings: S-adenosylmethionine, histone H4 peptide, 2 hours at room temperature, 8 points 10 μM to 0.128 nM.
T1 construct: purchased BPS Bioscience (USA) 51045
Assay type: biochemical
Protocol: Method for Measuring Enzyme Activity
In vitro assay: PRMT5-MEP50 enzyme complex, cofactor S-adenosylmethionine (SAM) and histone H4 peptide were reacted in vitro, and methylation of arginine (H4R3) —which is the third amino acid of histone H4—was measured in order to measure the enzyme activity of PRMT5.
Reagents: PRMT5-MEP50 enzyme complex (Catalog No. 51045), blocking buffer (52100-B), histone methyltransferase reaction buffer 2 (4×HMT assay buffer 2, Catalog No. 52170), and primary antibody (primary antibody 4-3, Catalog No. 52150) were purchased from BPS Bioscience (USA). The histone H4 peptide (1-20 amino acids) was custom made by Komabiotech (Korea) and used. S-adenosylmethionine was purchased from NEB (New England Biolabs, USA, Catalog No. B9003S). Plates for coating histone H4 peptide, washing buffer and color development reagent were purchased from the following vendors: Plate (Immobilizer™-Amino Plate, NUNC, Denmark, Catalog No. 436023), carbonate-bicarbonate buffer (Sigma-Aldrich, USA, Catalog No. C3041), washing buffer (10×TBST, Biosesang, Korea, Catalog No. T2005), TMB ELISA substrate (Abcam, UK, Catalog No. ab210902), horseradish peroxidase (HRP)-conjugated antibody (Abcam, UK, Catalog No. ab6721).
Experimental procedure: The histone H4 peptide was diluted with carbonate-bicarbonate buffer and prepared to 100 μg/mL, and then dispensed onto the plate per 100 μL and reacted at 37° C. for 1 hour. PRMT5-MEP50 enzyme complex and S-adenosylmethionine were diluted with histone methyltransferase reaction buffer to prepare 5 μg/mL and 2 μM, respectively, and then 20 μL of PRMT5-MEP50 enzyme complex and 25 μL of S-adenosylmethionine were dispensed onto the plate prepared above. 5 μL of the compound diluted with 10% dimethyl sulfoxide solution was added thereto and reacted at room temperature for 2 hours (final volume=50 μL). The concentration of the compound was diluted 1:5 from 10 μM until the lowest concentration of 0.128 nM, and 8 points were used for the test. After preparing the primary antibody by diluting 1:2000 with blocking buffer, 100 μL was added to the plate and reacted at room temperature for 1 hour. After preparing horseradish peroxidase-conjugated antibody by diluting 1:10,000 with blocking buffer, 100 μL was added to the plate and reacted at room temperature for 1 hour. 100 μL of TMB substrate was added and reacted for 3 minutes at room temperature, and 100 μL of 1 N sulfuric acid was then added to terminate the reaction. Then, the absorbance at 450 nm was measured to calculate the IC50 value of the compound. (+++: 1 to 100 nM, ++: greater than 100 to 1,000 nM, +: greater than 1,000 to 10,000 nM)

T1 sequence (O14744 2-637 limits assumed): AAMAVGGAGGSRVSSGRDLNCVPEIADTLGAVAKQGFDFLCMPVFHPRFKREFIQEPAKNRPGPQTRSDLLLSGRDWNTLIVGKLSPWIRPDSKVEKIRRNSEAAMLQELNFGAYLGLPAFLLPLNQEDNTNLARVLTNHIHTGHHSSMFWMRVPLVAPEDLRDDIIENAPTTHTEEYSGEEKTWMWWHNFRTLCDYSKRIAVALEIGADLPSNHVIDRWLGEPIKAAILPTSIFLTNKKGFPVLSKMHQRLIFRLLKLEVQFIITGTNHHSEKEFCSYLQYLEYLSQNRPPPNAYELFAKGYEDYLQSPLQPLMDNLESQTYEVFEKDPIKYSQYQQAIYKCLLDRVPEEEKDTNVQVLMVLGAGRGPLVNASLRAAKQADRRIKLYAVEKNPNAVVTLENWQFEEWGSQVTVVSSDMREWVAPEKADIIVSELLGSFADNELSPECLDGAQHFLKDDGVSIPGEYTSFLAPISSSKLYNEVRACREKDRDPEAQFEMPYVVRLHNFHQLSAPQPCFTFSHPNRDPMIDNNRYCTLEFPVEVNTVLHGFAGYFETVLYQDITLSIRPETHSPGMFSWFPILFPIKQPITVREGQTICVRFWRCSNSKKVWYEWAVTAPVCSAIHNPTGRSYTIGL
T1 sequence (Q9BQA1 2-342 partner limits assumed): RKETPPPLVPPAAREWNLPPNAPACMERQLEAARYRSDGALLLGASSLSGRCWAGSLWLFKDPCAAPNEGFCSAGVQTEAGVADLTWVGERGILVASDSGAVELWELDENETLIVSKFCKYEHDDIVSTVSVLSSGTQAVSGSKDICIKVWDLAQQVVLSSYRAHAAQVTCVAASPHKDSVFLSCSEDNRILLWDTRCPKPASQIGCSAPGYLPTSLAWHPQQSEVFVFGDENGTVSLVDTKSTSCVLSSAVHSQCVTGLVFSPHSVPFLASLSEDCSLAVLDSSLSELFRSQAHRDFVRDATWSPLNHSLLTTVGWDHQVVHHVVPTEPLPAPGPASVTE

Row | Compound | IC50
1 | O=C1c2ccc(Br)cc2CCN1C[C@H](O)CN1CCc2ccccc2C1 [Example 1, 6-bromo-2-[(2R)-3-(3,4-dihydro-1H-isoquinolin-2-yl)-2-hydroxy-propyl]-3,4-dihydroisoquinolin-1-one] | 1 to 100 nM
2 | O=C1c2ccc(N3CCCC3)cc2CCN1C[C@H](O)CN1CCc2ccccc2C1 [Example 2, 2-[(2R)-3-(3,4-dihydro-1H-isoquinolin-2-yl)-2-hydroxy-propyl]-6-pyrrolidin-1-yl-3,4-dihydroisoquinolin-1-one] | 100 to 1000 nM
3 | O=C1c2ccc(NC3CCOCC3)cc2CCN1C[C@H](O)CN1CCc2ccccc2C1 [Example 5, 2-[(2R)-3-(3,4-dihydro-1H-isoquinolin-2-yl)-2-hydroxy-propyl]-6-(tetrahydropyran-4-ylamino)-3,4-dihydroisoquinolin-1-one] | 1 to 100 nM
4 | O=C1c2ccc(NCC3CCCCC3)cc2CCN1C[C@H](O)CN1CCc2ccccc2C1 [Example 6, 6-(cyclohexylmethylamino)-2-[(2R)-3-(3,4-dihydro-1H-isoquinolin-2-yl)-2-hydroxy-propyl]-3,4-dihydroisoquinolin-1-one] | 1 to 100 nM
5 | O=C1c2ccc(NCc3ccccc3)cc2CCN1C[C@H](O)CN1CCc2ccccc2C1 [Example 7, 6-(benzylamino)-2-[(2R)-3-(3,4-dihydro-1H-isoquinolin-2-yl)-2-hydroxy-propyl]-3,4-dihydroisoquinolin-1-one] | 1 to 100 nM
6 | O=C1c2ccc(-c3ccncc3)cc2CCN1C[C@H](O)CN1CCc2ccccc2C1 [Example 8, 2-[(2R)-3-(3,4-dihydro-1H-isoquinolin-2-yl)-2-hydroxy-propyl]-6-(4-pyridyl)-3,4-dihydroisoquinolin-1-one] | 1 to 100 nM
7 | O=C1c2ccc(-c3cccnc3)cc2CCN1C[C@H](O)CN1CCc2ccccc2C1 [Example 9, 2-[(2R)-3-(3,4-dihydro-1H-isoquinolin-2-yl)-2-hydroxy-propyl]-6-(3-pyridyl)-3,4-dihydroisoquinolin-1-one] | 1 to 100 nM
8 | O=C1c2ccc(NCc3ccncc3)cc2CCN1C[C@H](O)CN1CCc2ccccc2C1 [Example 10, 2-[(2R)-3-(3,4-dihydro-1H-isoquinolin-2-yl)-2-hydroxy-propyl]-6-(4-pyridylmethylamino)-3,4-dihydroisoquinolin-1-one] | 1 to 100 nM
9 | CN(c1ccc2c(c1)CCN(C[C@H](O)CN1CCc3ccccc3C1)C2=O)C1CCCCC1 [Example 11, 6-[cyclohexyl(methyl)amino]-2-[(2R)-3-(3,4-dihydro-1H-isoquinolin-2-yl)-2-hydroxy-propyl]-3,4-dihydroisoquinolin-1-one] | 1 to 100 nM
10 | O=C1c2ccc(-c3ccnc(F)c3)cc2CCN1C[C@H](O)CN1CCc2ccccc2C1 [Example 12, 2-[(2R)-3-(3,4-dihydro-1H-isoquinolin-2-yl)-2-hydroxy-propyl]-6-(2-fluoro-4-pyridyl)-3,4-dihydroisoquinolin-1-one] | 1 to 100 nM
11 | CCCc1ccc2c(c1)CCN(C[C@H](O)CN1CCc3ccccc3C1)C2=O [Example 13, 2-[(2R)-3-(3,4-dihydro-1H-isoquinolin-2-yl)-2-hydroxy-propyl]-6-propyl-3,4-dihydroisoquinolin-1-one] | 1 to 100 nM
12 | O=C1c2ccc(-c3ccc(F)nc3)cc2CCN1C[C@H](O)CN1CCc2ccccc2C1 [Example 15, 2-[(2R)-3-(3,4-dihydro-1H-isoquinolin-2-yl)-2-hydroxy-propyl]-6-(6-fluoro-3-pyridyl)-3,4-dihydroisoquinolin-1-one] | 1 to 100 nM
13 | C[C@@H]1CN(c2ccc3c(c2)CCN(C[C@H](O)CN2CCc4ccccc4C2)C3=O)CCO1 [Example 16, 2-[(2R)-3-(3,4-dihydro-1H-isoquinolin-2-yl)-2-hydroxy-propyl]-6-[(2R)-2-methylmorpholin-4-yl]-3,4-dihydroisoquinolin-1-one] | 1 to 100 nM
14 | CN1CCN(c2ccc3c(c2)CCN(C[C@H](O)CN2CCc4ccccc4C2)C3=O)CC1 [Example 17, 2-[(2R)-3-(3,4-dihydro-1H-isoquinolin-2-yl)-2-hydroxy-propyl]-6-(4-methylpiperazin-1-yl)-3,4-dihydroisoquinolin-1-one] | 1 to 100 nM
15 | O=C1c2ccc(N3CCCC3=O)cc2CCN1C[C@H](O)CN1CCc2ccccc2C1 [Example 18, 2-[(2R)-3-(3,4-dihydro-1H-isoquinolin-2-yl)-2-hydroxy-propyl]-6-(2-oxopyrrolidin-1-yl)-3,4-dihydroisoquinolin-1-one] | 1000 to 10000 nM
16 | CC(C)(C)C(=O)Nc1ccc2c(c1)CCN(C[C@H](O)CN1CCc3ccccc3C1)C2=O [Example 19, N-[2-[(2R)-3-(3,4-dihydro-1H-isoquinolin-2-yl)-2-hydroxy-propyl]-1-oxo-3,4-dihydroisoquinolin-6-yl]-2,2-dimethylpropanamide] | 100 to 1000 nM
17 | O=C1c2ccc(N3CCC3=O)cc2CCN1C[C@H](O)CN1CCc2ccccc2C1 [Example 20, 2-[(2R)-3-(3,4-dihydro-1H-isoquinolin-2-yl)-2-hydroxy-propyl]-6-(2-oxoazetidin-1-yl)-3,4-dihydroisoquinolin-1-one] | 100 to 1000 nM
18 | O=C1c2ccc(N3CCCCC3=O)cc2CCN1C[C@H](O)CN1CCc2ccccc2C1 [Example 21, 2-[(2R)-3-(3,4-dihydro-1H-isoquinolin-2-yl)-2-hydroxy-propyl]-6-(2-oxo-1-piperidyl)-3,4-dihydroisoquinolin-1-one] | 100 to 1000 nM
19 | O=C1c2ccc(NCc3cccnc3)cc2CCN1C[C@H](O)CN1CCc2ccccc2C1 [Example 22, 2-[(2R)-3-(3,4-dihydro-1H-isoquinolin-2-yl)-2-hydroxy-propyl]-6-(3-pyridylmethylamino)-3,4-dihydroisoquinolin-1-one] | 1000 to 10000 nM
20 | O=C1c2ccc(NCC3CCOCC3)cc2CCN1C[C@H](O)CN1CCc2ccccc2C1 [Example 23, 2-[(2R)-3-(3,4-dihydro-1H-isoquinolin-2-yl)-2-hydroxy-propyl]-6-(tetrahydropyran-4-ylmethylamino)-3,4-dihydroisoquinolin-1-one] | 1 to 100 nM
21 | CC(=O)N1CCC(CNc2ccc3c(c2)CCN(C[C@H](O)CN2CCc4ccccc4C2)C3=O)CC1 [Example 24, 6-[(1-acetyl-4-piperidyl)methylamino]-2-[(2R)-3-(3,4-dihydro-1H-isoquinolin-2-yl)-2-hydroxy-propyl]-3,4-dihydroisoquinolin-1-one] | 1 to 100 nM
22 | CC(C)(O)CNc1ccc2c(c1)CCN(C[C@H](O)CN1CCc3ccccc3C1)C2=O [Example 25, 2-[(2R)-3-(3,4-dihydro-1H-isoquinolin-2-yl)-2-hydroxy-propyl]-6-[(2-hydroxy-2-methyl-propyl)amino]-3,4-dihydroisoquinolin-1-one] | 1 to 100 nM
23 | O=C(Nc1ccc2c(c1)CCN(C[C@H](O)CN1CCc3ccccc3C1)C2=O)c1cccnc1 [Example 26, N-[2-[(2R)-3-(3,4-dihydro-1H-isoquinolin-2-yl)-2-hydroxy-propyl]-1-oxo-3,4-dihydroisoquinolin-6-yl]pyridine-3-carboxamide] | 1 to 100 nM
24 | O=C(Nc1ccc2c(c1)CCN(C[C@H](O)CN1CCc3ccccc3C1)C2=O)c1ccncc1 [Example 27, N-[2-[(2R)-3-(3,4-dihydro-1H-isoquinolin-2-yl)-2-hydroxy-propyl]-1-oxo-3,4-dihydroisoquinolin-6-yl]pyridine-4-carboxamide] | 100 to 1000 nM
25 | CC1CC(C)CN(c2ccc3c(c2)CCN(C[C@H](O)CN2CCc4ccccc4C2)C3=O)C1 (stereo partly drawn) [Example 28, 2-[(2R)-3-(3,4-dihydro-1H-isoquinolin-2-yl)-2-hydroxy-propyl]-6-(3,5-dimethyl-1-piperidyl)-3,4-dihydroisoquinolin-1-one] | 100 to 1000 nM
26 | CC1CN(c2ccc3c(c2)CCN(C[C@H](O)CN2CCc4ccccc4C2)C3=O)CC(C)N1 (stereo partly drawn) [Example 29, 2-[(2R)-3-(3,4-dihydro-1H-isoquinolin-2-yl)-2-hydroxy-propyl]-6-(3,5-dimethylpiperazin-1-yl)-3,4-dihydroisoquinolin-1-one] | 1 to 100 nM
27 | O=C1c2ccc(NCC3CCOC3)cc2CCN1C[C@H](O)CN1CCc2ccccc2C1 (stereo partly drawn) [Example 30, 2-[(2R)-3-(3,4-dihydro-1H-isoquinolin-2-yl)-2-hydroxy-propyl]-6-(tetrahydrofuran-3-ylmethylamino)-3,4-dihydroisoquinolin-1-one] | 1 to 100 nM
